Where no end group is shown, it is not given here.
How the values were obtained:
IL-13 = IL-13 in the BAL fluid (ELISA); type: in vivo, BALB/c mice; settings: 150 μg peptide prior to each ovalbumin challenge; ovalbumin control 84.95, normal saline 55.67
Description: Six-to-eight week-old male BALB/c mice were obtained from Harlan-Sprague Dawley (Indianapolis, Ind.) and were housed in a conventional animal facility. For each experimental condition, a minimum of 6-8 animals was used. Awake animals were sensitized five days per week for each of two weeks by instillation in each nostril of 5 μL 1% ovalbumin in PBS. Alternatively, animals were sensitized by two weekly systemic, i.p. injections of 0.025% ovalbumin mixed with 4 mg/mL Al(OH)3. Following two weeks rest, animals were challenged for five days by intranasal instillation of 1% ovalbumin. Animals treated with peptides received the STAT-6-IP (15, 50, or 150 μg) or STAT-6-CP (50 or 150 μg) in 10 μL PBS 30 minutes prior to each ovalbumin challenge. Twenty-four hours after the last ovalbumin challenge, mice were deeply anaesthetized with xylazine and sodium pentobarbital and paralyzed with pancuronium bromide. The tail vein was cannulated for drug administration and heart rate was monitored by EKG. […] Respiratory system resistance was measured. […] Methacholine was injected through the tail vein at dose of 10, 20, 40, 80, 160, 320 μg/kg and the maximal resistance and elastance were recorded. […] Six fields were counted, each encompassing 100 cells per slide, and means obtained.

IL-4 = experiment: Ovalbumin-induced IL-4 production by splenocytes from ovalbumin-sensitized mice (ELISA); type: cell-based, BALB/c mice; settings: ovalbumin 100 μg/mL + 100 μM peptide added daily, four days; ovalbumin alone 309.3 ± 49.6
Description: Splenocytes from ovalbumin-sensitized mice were cultured for four days with no antigen, with ovalbumin alone, or with ovalbumin plus the STAT-6-IP or a STAT-6 Tyr-641 mutant (STAT-6-CP; Tyr-Ala-Arg-Ala-Ala-Ala-Arg-Gln-Ala-Arg-Ala-Gly-Arg-Gly-Phe-Val-Ser-Thr-Thr; SEQ ID NO:8). The STAT-6-IP and STAT-6-CP were added to splenocyte cultures daily. Treatment with the STAT-6-IP, but not the STAT-6-CP, reduced the supernatant levels of both IL-4 and IL-13 (Table 3).
BALB/c mice were sensitized systemically by two weekly i.p. injections of 0.025% ovalbumin mixed with 4 mg/mL Al(OH)3. One week after the second sensitization, mice were sacrificed and spleens harvested. A single cell suspension of splenocytes (5×10^6 cells/mL) was cultured in RPMI-1640 medium containing 10% heat-inactivated fetal bovine serum and 2 mM L-glutamine, 50 μM 2-mercaptoethanol, 100 U/mL penicillin, and 100 μg/mL streptomycin sulfate. Splenocytes were cultured for four days in the presence or absence of 100 μg/mL ovalbumin, either alone or with 100 μM STAT-6-IP or STAT-6-CP, which were added daily. After four days, culture supernatants were harvested to quantify cytokine production by ELISA. […] Cytokine expression was monitored by flow cytometry and analyzed using CELLQUEST™ software (Becton Dickinson). […]

YARAAARQARAGRGFVSTT [STAT-6-CP, STAT-6 Tyr-641 mutant, control peptide]
IL-13, pg/mL (±SEM), BAL fluid (IL-13): 75.75 (±5.60) pg/mL
IL-4 (pg/mL ± SEM), culture supernatant (IL-4): 212.9 ± 4.1 pg/mL

Source: patent US7829528B2, “Compositions and methods for treating STAT-6 associated diseases or conditions” (The Rockefeller University, priority 2004, dated 2010)
